{"source": "patent US9315503B2", "about": "“Kinase inhibitors” (CHIESI FARMACEUTICI S.p.A., priority 2011, dated 2016)", "note": "Where a name gives a salt, the structure may show the parent alone."}
{"molecular_target": "T1, p38alpha (Homo sapiens, UniProt Q16539)", "T1 construct": "purchased Invitrogen PV3304", "T1 sequence (Q16539 whole entry)": "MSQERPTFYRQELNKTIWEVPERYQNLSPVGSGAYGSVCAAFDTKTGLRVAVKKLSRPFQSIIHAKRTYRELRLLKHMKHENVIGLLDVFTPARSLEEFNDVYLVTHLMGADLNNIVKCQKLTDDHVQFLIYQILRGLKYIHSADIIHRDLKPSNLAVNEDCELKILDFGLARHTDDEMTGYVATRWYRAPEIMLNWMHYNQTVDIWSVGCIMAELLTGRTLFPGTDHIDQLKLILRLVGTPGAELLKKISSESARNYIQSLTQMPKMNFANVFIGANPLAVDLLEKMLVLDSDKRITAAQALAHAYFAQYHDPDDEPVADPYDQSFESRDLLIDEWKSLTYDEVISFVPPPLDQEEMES", "assay": "P38Alpha enzyme inhibition assay (Alphascreen kinase activity assay)", "type": "biochemical", "conditions": "100 pM p38alpha, 250 μM ATP, 2 hours pre-incubation at 25° C., read-out: p38α inhibition (IC50 values)", "protocol": "P38Alpha Enzyme Inhibition Assay.\nThe inhibitory activity of compounds was determined using an Alphascreen® (Perkin Elmer) based kinase activity assay. Kinase reactions consisted of 25 mM HEPES pH 7.5, 10 mM MgCl2, 100 μM Na3VO4, 2 mM DTT, 0.05 mg/ml Tween 20, 100 pM p38alpha (Invitrogen, PV3304), 1% DMSO and 0.3 μg/ml ATF-2 fusion protein (New England Biolabs, 9224). Compounds were incubated under these conditions for 2 hours, at 25° C., prior to the initiation of the kinase activity by the addition of the 250 μM ATP. Reaction volumes were 20 uL. After 1 hr at 25° C. reactions were stopped by the adding 10 uL of 25 mM HEPES pH 7.5 containing 62.5 mM EDTA, 0.05% Triton X-100, 10% BSA and 0.83 ng/uL anti-phospho-ATF2 antibody (Abeam, ab28812). Detection was performed by measuring luminescence following the addition of Alphascreen Donor beads (Perkin Elmer 6765300) and Protein A Alphascreen Acceptor beads (Perkin Elmer 6760137), both at a final concentration of 20 ug/ml. IC50 values were determined from concentration-response curves.", "units": {"IC50": "nM"}}
{"smiles": "Cc1ccc(-n2nc(C(C)(C)C)cc2NC(=O)N[C@H]2CC[C@@H](Oc3ccc4nnc([C@@H]5CCCN5)n4c3)c3ccccc32)cc1", "note": "[Example 6, 1-(5-tert-Butyl-2-p-tolyl-2H-pyrazol-3-yl)-3-[(1S,4R)-4-((S)-3-pyrrolidin-2-yl-[1,2,4]triazolo[4,3-a]pyridin-6-yloxy)-1,2,3,4-tetrahydro-naphthalen-1-yl]-urea]", "IC50": "< 10"}
{"smiles": "Cc1ccc(-n2nc(C(C)(C)C)cc2NC(=O)N[C@H]2CC[C@@H](OCCN3CCOCC3)c3ccccc32)cc1", "note": "[Example 32, 1-(5-tert-Butyl-2-p-tolyl-2H-pyrazol-3-yl)-3-[(1S,4R)-4-(2-morpholin-4-yl-ethoxy)-1,2,3,4-tetrahydro-naphthalen-1-yl]-urea]", "IC50": "100 to 500"}
{"smiles": "Cc1ccc(-n2nc(C(C)(C)C)cc2NC(=O)N[C@H]2CC[C@@H](Oc3ccc4nnc(N(C)CCN5CCOCC5)n4c3)c3ccccc32)cc1", "note": "[Example 45, 1-(5-tert-Butyl-2-p-tolyl-2H-pyrazol-3-yl)-3-((1S,4R)-4-{3-[methyl-(2-morpholin-4-yl-ethyl)-amino]-[1,2,4]triazolo[4,3-a]pyridin-6-yloxy}-1,2,3,4-tetrahydro-naphthalen-1-yl)-urea]", "IC50": "< 10"}
{"smiles": "Cc1ccc(-c2nc(C(C)(C)C)[nH]c2NC(=O)N[C@H]2CC[C@@H](Oc3ccc4nnc(N5CCCCC5)n4c3)c3ccccc32)cc1", "note": "[Example 51, 1-(2-tert-Butyl-5-p-tolyl-3H-imidazol-4-yl)-3-[(1S,4R)-4-(3-piperidin-1-yl-[1,2,4]triazolo[4,3-a]pyridin-6-yloxy)-1,2,3,4-tetrahydro-naphthalen-1-yl]-urea]", "IC50": "< 10"}
{"smiles": "Cc1ccc(-n2nc(C(C)(C)C)cc2NC(=O)N[C@H]2CC[C@@H](Oc3ccc4nnc(CN5CCN(C)C(CO)C5)n4c3)c3ccccc32)cc1", "note": "(stereo partly drawn) [Example 56, 1-(5-tert-Butyl-2-p-tolyl-2H-pyrazol-3-yl)-3-{(1S,4R)-4-[3-(3-hydroxymethyl-4-methyl-piperazin-1-ylmethyl)-[1,2,4]triazolo[4,3-a]pyridin-6-yloxy]-1,2,3,4-tetrahydro-naphthalen-1-yl}-urea]", "IC50": "< 10"}
{"smiles": "Cc1ccc(-n2nc(C(C)(C)C)cc2NC(=O)N[C@H]2CC[C@@H](Oc3ccc4nnc([C@@H]5C[C@@H](F)CN5C)n4c3)c3ccccc32)cc1", "note": "[Example 91, 1-(5-tert-Butyl-2-p-tolyl-2H-pyrazol-3-yl)-3-{(1S,4R)-4-[3-((2S,4R)-4-fluoro-1-methyl-pyrrolidin-2-yl)-[1,2,4]triazolo[4,3-a]pyridin-6-yloxy]-1,2,3,4-tetrahydro-naphthalen-1-yl}-urea]", "IC50": "< 10"}
{"smiles": "C[C@H]1CCCCN1c1nnc2ccc(O[C@@H]3CC[C@H](NC(=O)Nc4cc(C(C)(C)C)nn4-c4cccc(CCN5CCOCC5)c4)c4ccccc43)cn12", "note": "[Example 131, 1-{5-tert-Butyl-2-[3-(2-morpholin-4-yl-ethyl)-phenyl]-2H-pyrazol-3-yl}-3-{(1S,4R)-4-[3-((S)-2-methyl-piperidin-1-yl)-[1,2,4]triazolo[4,3-a]pyridin-6-yloxy]-1,2,3,4-tetrahydro-naphthalen-1-yl}-urea formate salt]", "IC50": "< 10"}
{"smiles": "C[C@H]1CCCCN1c1nnc2ccc(O[C@@H]3CC[C@H](NC(=O)Nc4cc(C(C)(C)C)nn4-c4cccc(CCN5CCCC5)c4)c4ccccc43)cn12", "note": "[Example 132, 1-{5-tert-Butyl-2-[3-(2-pyrrolidin-1-yl-ethyl)-phenyl]-2H-pyrazol-3-yl}-3-{(1S,4R)-4-[3-((S)-2-methyl-piperidin-1-yl)-[1,2,4]triazolo[4,3-a]pyridin-6-yloxy]-1,2,3,4-tetrahydro-naphthalen-1-yl}-urea formate salt]", "IC50": "< 10"}
{"smiles": "CCN(C)CCc1cccc(-n2nc(C(C)(C)C)cc2NC(=O)N[C@H]2CC[C@@H](Oc3ccc4nnc(N5CCCC[C@@H]5C)n4c3)c3ccccc32)c1", "note": "[Example 133, 1-(5-tert-Butyl-2-{3-[2-(ethyl-methyl-amino)-ethyl]-phenyl}-2H-pyrazol-3-yl)-3-{(1S,4R)-4-[3-((S)-2-methyl-piperidin-1-yl)-[1,2,4]triazolo[4,3-a]pyridin-6-yloxy]-1,2,3,4-tetrahydro-naphthalen-1-yl}-urea formate salt]", "IC50": "< 10"}
{"smiles": "C[C@H]1CCCCN1c1nnc2ccc(O[C@@H]3CC[C@H](NC(=O)Nc4cc(C(C)(C)C)nn4-c4cccc(CCN(C)C)c4)c4ccccc43)cn12", "note": "[Example 134, 1-{5-tert-Butyl-2-[3-(2-dimethylamino-ethyl)-phenyl]-2H-pyrazol-3-yl}-3-{(1S,4R)-4-[3-((S)-2-methyl-piperidin-1-yl)-[1,2,4]triazolo[4,3-a]pyridin-6-yloxy]-1,2,3,4-tetrahydro-naphthalen-1-yl}-urea formate salt]", "IC50": "< 10"}
{"smiles": "C[C@H]1CCCCN1c1nnc2ccc(O[C@@H]3CC[C@H](NC(=O)Nc4cc(C(C)(C)C)nn4-c4cccc(CCN5CCCCC5)c4)c4ccccc43)cn12", "note": "[Example 135, 1-{5-tert-Butyl-2-[3-(2-piperidin-1-yl-ethyl)-phenyl]-2H-pyrazol-3-yl}-3-{(1S,4R)-4-[3-((S)-2-methyl-piperidin-1-yl)-[1,2,4]triazolo[4,3-a]pyridin-6-yloxy]-1,2,3,4-tetrahydro-naphthalen-1-yl}-urea formate salt]", "IC50": "< 10"}
{"smiles": "C[C@H]1CCCCN1c1nnc2ccc(O[C@@H]3CC[C@H](NC(=O)Nc4cc(C(C)(C)C)nn4-c4cccc(CCN5CCN(C)CC5)c4)c4ccccc43)cn12", "note": "[Example 136, 1-(5-tert-Butyl-2-{3-[2-(4-methyl-piperazin-1-yl)-ethyl]-phenyl}-2H-pyrazol-3-yl)-3-{(1S,4R)-4-[3-((S)-2-methyl-piperidin-1-yl)-[1,2,4]triazolo[4,3-a]pyridin-6-yloxy]-1,2,3,4-tetrahydro-naphthalen-1-yl}-urea formate salt]", "IC50": "< 10"}
{"smiles": "C[C@H]1CCCCN1c1nnc2ccc(O[C@@H]3CC[C@H](NC(=O)Nc4cc(C(C)(C)C)nn4-c4cccc(CCN5CCCOCC5)c4)c4ccccc43)cn12", "note": "[Example 137, 1-{5-tert-Butyl-2-[3-(2-[1,4]oxazepan-4-yl-ethyl)-phenyl]-2H-pyrazol-3-yl}-3-{(1S,4R)-4-[3-((S)-2-methyl-piperidin-1-yl)-[1,2,4]triazolo[4,3-a]pyridin-6-yloxy]-1,2,3,4-tetrahydro-naphthalen-1-yl}-urea formate salt]", "IC50": "< 10"}
{"smiles": "C[C@H]1CCCCN1c1nnc2ccc(O[C@@H]3CC[C@H](NC(=O)Nc4cc(C(C)(C)C)nn4-c4cccc(CCN5CCCN(C)CC5)c4)c4ccccc43)cn12", "note": "[Example 138, 1-(5-tert-Butyl-2-{3-[2-(4-methyl-[1,4]diazepan-1-yl)-ethyl]-phenyl}-2H-pyrazol-3-yl)-3-{(1S,4R)-4-[3-((S)-2-methyl-piperidin-1-yl)-[1,2,4]triazolo[4,3-a]pyridin-6-yloxy]-1,2,3,4-tetrahydro-naphthalen-1-yl}-urea formate salt]", "IC50": "< 10"}
{"smiles": "C[C@H]1COCCN1c1nnc2ccc(O[C@@H]3CC[C@H](NC(=O)Nc4cc(C(C)(C)C)nn4CCO)c4ccccc43)cn12", "note": "[Example 139, 1-[5-tert-Butyl-2-(2-hydroxy-ethyl)-2H-pyrazol-3-yl]-3-{(1S,4R)-4-[3-((S)-3-methyl-morpholin-4-yl)-[1,2,4]triazolo[4,3-a]pyridin-6-yloxy]-1,2,3,4-tetrahydro-naphthalen-1-yl}-urea]", "IC50": "< 10"}
{"smiles": "C[C@H]1CCCCN1c1nnc2ccc(O[C@@H]3CC[C@H](NC(=O)Nc4cc(C(C)(C)C)nn4-c4ccnc(N(C)CCN(C)C)n4)c4ccccc43)cn12", "note": "[Example 140]", "IC50": "< 10"}
{"smiles": "C[C@H]1COCCN1c1nnc2ccc(O[C@@H]3CC[C@H](NC(=O)Nc4cc(C(C)(C)C)nn4-c4cccc(OCCN(C)C)c4)c4ccccc43)cn12", "note": "[Example 141, 1-{5-tert-Butyl-2-[3-(2-dimethylamino-ethoxy)-phenyl]-2H-pyrazol-3-yl}-3-{(1S,4R)-4-[3-((S)-3-methyl-morpholin-4-yl)-[1,2,4]triazolo[4,3-a]pyridin-6-yloxy]-1,2,3,4-tetrahydro-naphthalen-1-yl}-urea formate salt]", "IC50": "< 10"}
{"smiles": "C[C@H]1COCCN1c1nnc2ccc(O[C@@H]3CC[C@H](NC(=O)Nc4cc(C(C)(C)C)nn4CCN4CCOCC4)c4ccccc43)cn12", "note": "[Example 142, 1-[5-tert-Butyl-2-(2-morpholin-4-yl-ethyl)-2H-pyrazol-3-yl]-3-{(1S,4R)-4-[3-((S)-3-methyl-morpholin-4-yl)-[1,2,4]triazolo[4,3-a]pyridin-6-yloxy]-1,2,3,4-tetrahydro-naphthalen-1-yl}-urea formate salt]", "IC50": "< 10"}
{"smiles": "C[C@@H]1CCC[C@H](C)N1c1nnc2ccc(O[C@@H]3CC[C@H](NC(=O)Nc4cc(C(C)(C)C)nn4-c4cccc(CN5CCN(C)CC5)c4)c4ccccc43)cn12", "note": "[Example 143, 1-{5-tert-Butyl-2-[3-(4-methyl-piperazin-1-ylmethyl)-phenyl]-2H-pyrazol-3-yl}-3-{(1S,4R)-4-[3-((2S,6R)-2,6-dimethyl-piperidin-1-yl)-[1,2,4]triazolo[4,3-a]pyridin-6-yloxy]-1,2,3,4-tetrahydro-naphthalen-1-yl}-urea formate salt]", "IC50": "< 10"}
